Experimental data taken from the supplement of paper PMC8882468.

What was measured:
Assay in all cases: CTG-3D luminescence at 96 h relative to day-0 seeding control (ratio to day 0); higher = more growth / less cytotoxicity; PDxO 3D drug screen (set 2), 96 h, CTG-3D normalised to day-0 seeding control.
HCI-025 = tested on: HCI-025 (organoid from a breast cancer xenograft)
HCI-017.E2 = tested on: HCI-017.E2 (organoid from an ER-positive breast cancer xenograft)
HCI-008 = tested on: HCI-008 (organoid from a HER2-enriched breast cancer xenograft)
HCI-011.E2 = tested on: HCI-011.E2 (organoid from an ER-positive breast cancer xenograft)
HCI-016 = tested on: HCI-016 (organoid from a triple-negative breast cancer xenograft)

CC(=O)O[C@@]12CO[C@@H]1C[C@H](O)[C@@]1(C)C(=O)[C@H](O)C3=C(C)[C@@H](OC(=O)[C@H](O)[C@@H](NC(=O)OC(C)(C)C)c4ccccc4)C[C@@](O)([C@@H](OC(=O)c4ccccc4)[C@H]21)C3(C)C [docetaxel]
CTG-3D luminescence at 96 h
Conditions	12.5 pM	0.00025 µM	0.005 µM	0.1 µM	1 µM	10 µM	100 µM	625 fM
HCI-008, days in culture: 325	1.01	1.46	1.35	1.91	2.06	1.53	0.0817	1.14
HCI-008, days in culture: 340	0.747	1.06	1.26	0.976	0.918	–	0.0677	0.77
HCI-008, days in culture: 354	1.16	1.01	1.5	1.16	0.508	1.23	0.211	0.885
HCI-008, days in culture: 382	1.56	1.35	0.719	0.823	0.446	0.547	0.0143	1.74
HCI-011.E2, days in culture: 74	2.53	2.12	1.78	1.48	1.09	0.702	0.133	2.19
HCI-016, days in culture: 305	1.51	1.9	1.03	1.42	0.985	0.955	0.0636	1.77
HCI-016, days in culture: 327	0.628	0.252	0.393	0.838	0.432	0.497	0.0762	0.906
HCI-016, days in culture: 341	1.18	1.18	0.786	0.962	0.862	0.954	0.11	1.59
HCI-016, days in culture: 397	1.74	1.18	0.667	0.792	0.484	0.997	0.19	2.27
HCI-017.E2, days in culture: 85	2.47	1.92	0.986	0.975	0.797	0.598	0.154	2.7
HCI-025, days in culture: 175	0.586	0.61	0.547	0.494	0.674	0.771	0.387	0.704
HCI-025, days in culture: 189	0.971	0.89	0.694	1.01	0.76	0.759	0.286	1.74
HCI-025, days in culture: 212	2.49	1.38	0.974	0.822	0.332	0.385	0.187	0.772
HCI-025, days in culture: 224	2.29	2.24	0.853	0.501	0.639	0.685	0.065	1.64

CTG-3D luminescence at 96 h
Conditions	12.5 pM	0.00025 µM	0.005 µM	0.1 µM	1 µM	10 µM	100 µM	625 fM
HCI-011.E2	1.19	1.26	1.02	1.32	1.05	0.933	0.118	1.35
HCI-017.E2	1.34	1.47	1.2	1.36	1.14	0.78	0.13	1.38
